In BindingDB's records for doi:10.1016/j.bmc.2019.115177 (National Centre For Scientific Research "Demokritos, 2019) one finds Ki and IC50 data, which are given here for 10 compounds.

Experiment [1] concerns the target Insulin-regulated aminopeptidase (Homo sapiens). Briefly: Competitive inhibition of human recombinant IRAP expressed in baculovirus infected sf9 cells using L-AMC as substrate incubated for 5 to 10 mins by Michaelis-Menten analysis.
For experiment [2] the target is unchanged. Nature of the experiment: Inhibition of human recombinant IRAP expressed in baculovirus infected Sf9 cells using omniMMP fluorogenic substrate incubated for 5 to 10 mins by fluorescence spectrophotometry analysis.

As a reminder, the Ki is the equilibrium dissociation constant of an inhibitor or competing ligand from its target. One may read the IC50 as the concentration needed to halve the response being measured. Consider `O=C(Cn1cccc(O)c1=O)N[C@@H](Cc1c[nH]c2ccccc12)C(=O)OCc1ccccc1`, for which, in experiment [1], the Ki came to 5.7 µM. Besides, the IC50 in experiment [2] was found to be 10.9 µM.
`CC(C)[C@H](NC(=O)Cn1cccc(O)c1=O)C(=O)OCc1ccccc1`: the Ki in experiment [1] came out at 17.6 µM. Also, the IC50 in experiment [2] was determined as 33.6 µM.
As for `CCCC[C@H](N)C(=O)Nc1cccc(C(=O)N[C@@H](Cc2c[nH]c3ccccc23)C(=O)OCc2ccccc2)c1`, in experiment [1], the Ki came to 3.2 µM. In addition, in experiment [2], the IC50 came to 6.2 µM.
For `CCCC[C@H](N)C(=O)Nc1cc(C(=O)N[C@@H](Cc2c[nH]c3ccccc23)C(=O)OCc2ccccc2)ccn1`, the Ki in experiment [1] was determined as 4.6 µM. In experiment [2], the IC50 is 8.8 µM.
The like results for `CCCC[C@H](N)C(=O)NNc1ccc(C(=O)N[C@@H](Cc2c[nH]c3ccccc23)C(=O)OCc2ccccc2)cc1` were, in that order, 1.3 µM and 2.5 µM.
For `COc1cccn(CC(=O)NCCc2ccc(-c3ccccc3)cc2)c1=S`, the Ki in experiment [1] was found to be 8.7 µM. The IC50 in experiment [2] came to 16.7 µM.
As to `N[C@@H](CCc1ccccc1)C(=O)NNc1ccc(C(=O)N[C@@H](Cc2c[nH]c3ccccc23)C(=O)OCc2ccccc2)cc1`, the IC50 in experiment [2] came out at 2.5 µM.
`CCCC[C@H](N)C(=O)NNc1cccc(C(=O)N[C@@H](Cc2c[nH]c3ccccc23)C(=O)OCc2ccccc2)c1`: the Ki in experiment [1] stood at 3.8 µM. Besides, the IC50 in experiment [2] was determined as 7.2 µM.
Take `CCCC[C@H](N)C(=O)Nc1ccc(C(=O)N[C@@H](Cc2c[nH]c3ccccc23)C(=O)OCc2ccccc2)cc1`: the IC50 in experiment [2] is over 10 µM.
Consider `O=C(Cn1cccc(O)c1=O)NCCc1ccc(-c2ccccc2)cc1`, for which the Ki in experiment [1] came out at 13 µM. Besides, the IC50 in experiment [2] is 24.8 µM.
